Assay results from patent publication US5759768A, “Assays for factors affecting circularization of DNA, assays for factors affecting DNA integration, factors, and uses thereof” (priority 1995, dated 1998).
Like-named read-outs stand apart in the source and are kept apart here.

What was measured:
[1] = tested on: viral DNA integrated into .phi.X174 target DNA; assay type: biochemical, HIV-1; settings: for Relative activity, % of standard: target DNA 10 μg/ml
Description: (§1) The chronically HIV-1 infected Molt IIIB human T cell line (HTLV IIIB virus strain) was the source of virus for cell-free infections. This human T cell line constitutively produces a low level of the HTLV-111B strain of HIV-1. Culture supernatant containing a high concentration of virus was prepared by incubating 300×10^6 Molt IIIB cells in 50 ml fresh RPMI 1640 medium containing 20% fetal calf serum and 10 ng of phorbol 12-myristate 13-acetate per ml for 20-24 hours. […] Cytoplasmic extracts (3 ml) were prepared 4-4.5 hours post-infection, by a modification of the procedure of Brown et al., Cell 49: 342-356 (1987).
(§2) At specified times after infection, cells were washed twice with buffer K (20 mM Hepes, pH 7.4, 150 mM KCl, 5 mM MgCl2, 1 mM dithiothreitol, […]) and then lysed at a concentration of 33×10^6 cells per ml in the same buffer containing 0.025% digitonin or 0.025% Triton X-100. Cells were extracted for 10 minutes at room temperature, and the lysate was centrifuged at 1000×g for 3 minutes, and is referred to as "cytoplasmic extract". Cytoplasmic extract was the source of viral DNA for analyses in the assays described below. The pellet from the initial low-speed centrifugation contained cell debris and intact nuclei and is called the "nuclear pellet". Cell extracts from uninfected SupT1 cells were prepared in the same manner.
(§3) DNA samples were layered on 0.8% agarose gels and electrophoresed at 1 V/cm for 15 hour in Tris/acetate/EDTA buffer. After electrophoresis, DNA was blotted by capillary action onto nitrocellulose (0.45 μm, Schleicher & Schuell).
In Vitro Integration Reaction
Pst I-linearized (replicative form III) .phi.X174 DNA, relaxed circular (replicative form II) .phi.X174 DNA, and single-stranded M13 DNA were used as targets for the in vitro integration of viral DNA. Target DNA was added to cytoplasmic extracts of intected SupT1 cells to a concentration of 10 μg/ml, and reaction mixtures were incubated at […]. Reactions, were stopped by the addition of SDS and proteinase K.
Cytoplasmic extracts prepared from SupT1 cells 4 hours after infection with HIV-1 were incubated with exogenously added target DNA under integration reaction conditions. Products of the reactions were analyzed by Southern blot hybridization. The time course of integration into linear .phi.X174 DNA target was determined. Target DNA was added to the extract and the reaction was stopped after 0,5,15,30, or 45 minutes of incubation at 37° C. (FIG. 11, lanes a-e, respectively). Purified linear viral DNA was incubated for 1 hour at 37° C. with cytoplasmic extract prepared from uninfected SupT1 cells (lane f). […] Arrows in the Figure indicate the positions of viral DNA products. L, linear viral DNA:I, integration product. Integration was detected by the shift of linear viral DNA on Southern blots from the characteristic 9.7-kilobase (kb) position to a position corresponding to viral DNA plus target DNA.

[2] = tested on: linear viral DNA (circularization); assay type: biochemical, HIV-1
Description: as §1, §2
Viral DNA present in cytoplasmic extracts was deproteinated by incubation with proteinase K (1 mg/ml)/10 mM EDTA/0.5% SDS for 1 hour at 55° C. Samples were extracted successively with phenol/chloroform [1:1 (vol/vol)] and chloroform. DNA was ethanol-precipitated, washed with 70% ethanol, resuspended in 10 mM Tris.HCI (pH 7.4), and treated with RNase A (20 μpg/ml)for 1 hour at […]. before analysis by agarose gel electrophoresis and Southern blotting.
as §3
Cell extracts were prepared from cells four to five hours after infection with HIV-1, using the above-described methods to yield fully functional viral preintegration complexes. […] In all cases, a HIV-1 LTR-containing DNA fragment was used as a hybridization probe. Therefore, only LTR-containing DNA fragments are detected. […] Lane 5: Unintegrated viral DNA prepared by Hirt extraction of SupT1 cells infected 24 hours earlier with concentrated HIV-1. […] Viral DNA was purified from extracts incubated with 1 mM ATP for 15 minutes (lanes 1 and 4), with 1 mM ATP for 45 minutes (lanes 3 and 6), or with 1 mM ATPγS for 45 minutes (lanes 2 and 5). Lanes 1-3: uncut viral DNA; lanes 4-6: viral DNA was cut with SalI prior to electrophorosis. Lane 7: linear viral DNA, prepared from untreated extracts was digested with SalI prior to electrophorosis. Lane 8: unintegrated viral DNA prepared by Hirt extraction of infected cells, as described with respect to FIG. 14, digested with SalI prior to electrophoresis. […] Lanes 1-3. Viral DNA prepared from extracts treated with 1 mM ATP for 15 minutes, 30 minutes and 45 minutes, respectively. Lane 4: Viral DNA prepared from extract treated with 1 mM ATPγS for 45 minutes. Lanes 5-7: products of reactions shown in lanes 1-3, respectively, digested with SalI and PstI prior to electrophoresis. Lane 8: SalI, PstI digestion of viral DNA prepared from extract treated with 1 mM ATP for 90 minutes. Lane 9: SalI, PstI digestion of reaction products shown in lane 4. Lane 10: SalI, PstI digestion of unintegrated viral DNA prepared by Hirt extraction of infected cells.

O=C(O)CN(CCN(CC(=O)O)CC(=O)O)CC(=O)O [EDTA]
detectable integration in vitro ([1]; 1 mM EDTA, buffer devoid of added MgCl2): absence of detectable integration
Relative activity, % of standard ([1]; -Mg2+/+EDTA): 0 % of standard
detectable circle formation [2]: abolished detectable circle formation

[Cl-].[K+] [KCl]
Relative activity, % of standard ([1]; KCl 100 mM): 85 % of standard
detectable integration in vitro ([1]; KCl 250 mM or greater): completely abolished detectable integration
Relative activity, % of standard ([1]; KCl 250 mM): 0 % of standard
KCl concentration of most efficient formation of 1-LTR circles ([2]; 1 mM ATP, 37° C., 90 min): 125 mM
circular forms at KCl concentration ([2]; 100 mM KCl, 1 mM ATP, 90 min): 1-LTR circles were formed almost exclusively
circular forms at higher salt concentrations ([2]; higher KCl concentrations (lane 6: 250 mM), 1 mM ATP, 90 min): most entirely of the 2-LTR form
1-LTR [KCl] optimum ([2]; table): 125 mM
Autointegration [KCl] optimum ([2]; table): 150 to 175 mM
